Molecules are shown by their SMILES.

Here are results for six molecules from PMC9148403, “1,3,5-triazines inhibit osteosarcoma and avert lung metastasis in a patient-derived orthotopic xenograft mouse model with favorable pharmacokinetics” (Iranian Journal of Basic Medical Sciences, 2022).

Series [1] relates to K562. Description: Cellular antiproliferation assay (CCK-8), K562. Format: cell-based, human. The following applies: K562 cells, read-out: Cell growth inhibition IC50 K562.
Series [2] in a line: Pharmacokinetic assessment in SD rats. Format: in vivo. The following applies: for AUC 0- INF / C max / T max / T ½: rat, in vivo. On the procedure:
Pharmacokinetic assessment
The compound 8a was administered to female SD rats in a single dose of 1 and 5 mg/kg using intra-venomous and per-oral route in the vehicle. The blood samples from the rats were collected in a timely manner starting from 2 min to 24 hr. The serum was extracted from the blood-aliquots for the estimation of various pharmacokinetic parameters (T1/2, Tmax, Cmax, AUC0-INF) developed using WinNonlin software using LC-MS/MS (Applied Biosystem, USA).

Series [3] concerns Saos-2 cells. Description: Cell cycle analysis by flow cytometry. Format: cell-based, human. To be noted: Saos-2 cells, 10, 20 and 30 µM. On the procedure:
The effect of compound 8a (0, 10, 20, and 30 µM) was investigated on the cell cycle of Saos-2 cells as per our earlier reported procedure using a FACSCalibur flow cytometer with CellQuest V.3.3 software (BD Biosciences, USA) ([38]).
Background: In flow cytometry, cells or beads pass a laser one at a time.

Series [4] has as its target PI3K. Description: PI3K luminescent kinase assay (Promega). The series is classed as biochemical. The following applies: read-out: Kinase inhibition IC50 PI3K. The text has this: (§1) PI3K and mTOR kinase inhibition assay
(§2) The inhibitory activity of developed molecules against PI3K and mTOR was identified using luminescent kinase assay, and Lance Ultra assay from Promega, USA, respectively as per our earlier reported procedure ([38]).

Series [5] relates to KU812. Description: Cellular antiproliferation assay (CCK-8), KU812. The series is classed as cell-based, human. To be noted: KU812 cells, read-out: Cell growth inhibition IC50 KU812.
For series [6], the system named is Saos-2. The series can be described thus: Cellular antiproliferation assay (CCK-8), Saos-2. The series is classed as cell-based, human. The following applies: Saos-2 cells, read-out: Cell growth inhibition IC50 Saos-2. The procedure:
The human osteosarcoma cancer cell lines MG-63, U2-OS, and Saos-2 were purchased from CBSIBCB of the Chinese Academy of Sciences (Shanghai, China)
Cellular antiproliferation assay using cell counting kit (CCK-8)
The CCK-8 assay was used in the current study to analyze the effect of compounds on cellular proliferation. The transfected cells were seeded in a 96-well plate, and to this CCK-8 (20 µl) was added. The enzyme microplate reader at 450 nm was used to record the absorbance. The inhibitory effect on cellular proliferation was obtained as per the given formula: Inhibitory activity (%) = (1 - Atest/Acontrol) × 100 %.

The subject of series [7] is patient-derived osteosarcoma. Description: Osteosarcoma patient-derived orthotopic xenograft (PDOX) mouse model. Format: in vivo, Athymic nu/nu nude mice. The procedure: Surgical orthotopic implantation (SOI) for the establishment of the osteosarcoma PDOX model
The PDOX model in Athymic nu/nu nude mice was established according to our earlier reported procedure ([38]). The tumor tissue for implantation was obtained from a OS patient with written informed consent.
The mice were arbitrarily categorized into four dissimilar groups (n=6), and the treatment schedule lasted for 14 days as follows. The compound 8a was dissolved in the solution of PEG400/Tween 80/Saline solution at 10/10/80 % in volume, respectively prior to intraperitoneal administration.
Groups 2, 3, and 4 received compound 8a (2, 5, and 10 mg/kg, respectively, IP, daily)
The control animals received the vehicle only.
The length and width of the tumor along with the bodyweight of mice were recorded.
The tumor volume was calculated with the following formula:
Tumor volume (mm^3)= length (mm) × width (mm) × […])⁄2
Examination of lung histopathology
At the end of the experiment, the lung tissues were harvested and fixed in formalin (10%). The tissues were further entrenched in paraffin, sectioned using a microtome into 5-μm thickness. The resulting sections were dyed using hematoxylin-eosin (HE).
For orientation: In xenograft studies the graft and the host belong to different species.

Series [8] concerns the target mTOR (Homo sapiens, UniProt P42345). The series can be described thus: mTOR Lance Ultra kinase assay. Format: biochemical. The following applies: read-out: Kinase inhibition IC50 mTOR.
Source text: as §1, §2

For series [9], the system named is Saos-2 cells. The series can be described thus: Flow cytometric apoptosis assay (Annexin V/PI). Format: cell-based, human. To be noted: Saos-2 cells, 10, 20 and 30 µM. On the procedure: Flow cytometric apoptosis assay
The effect of compound 8a (0, 10, 20, and 30 µM) on apoptosis was investigated on Saos-2 cells as per our earlier reported procedure using a FACSCalibur flow cytometer with CellQuest V.3.3 software (BD Biosciences, USA) ([38]).

As usually defined, the IC50 is the concentration at which inhibition is half-maximal. As to `Cc1nc(NC(=O)c2ccc(CN3CCN(c4ccc(Cl)cc4)CC3)cc2)nc(Nc2nccc(-c3nccs3)n2)n1` [Compound 8a], the IC50 in series [1] was 620 nM; in series [4], 786 nM; in series [5], 722 nM; in series [6] it was 210 nM; in series [8], 345 nM. In [2] (SD rats, 1 mg/kg IV and 5 mg/kg PO single dose), the “Tolerability in the pharmacokinetic study” value is “well-tolerated”. For the same molecule, the “AUC 0- INF” value in series [2] (iv, 1 mg/kg) turned out to be 61.201 µg·h/mL; in series [2] (po, 5 mg/kg) it was 297.326 µg·h/mL. Besides, the C max came to 8126 ng/mL in [2] (iv, 1 mg/kg) and 410 ng/mL in series [2] (po, 5 mg/kg). Moreover, the T max in series [2] (iv, 1 mg/kg) was 0.13 h; in series [2] (po, 5 mg/kg), 2.67 h. Moreover, the “T ½” value in series [2] (iv, 1 mg/kg) worked out at 0.75 h; in series [2] (po, 5 mg/kg), 3.5 h. Also, the “Effect on cell cycle of Saos-2 cells” value in series [3] is “G2/M phase arrest”. Further, the “Effect on lung metastasis (lung histopathology)” value was “does not have a significant effect” in series [7] (PDOX mice, 2 mg/kg IP daily, 14 days); “less necrotic lesions and minimum interstitial hemorrhages” in series [7] (PDOX mice, 5 mg/kg IP daily, 14 days). Moreover, in series [7] (PDOX mice, 10 mg/kg IP daily, 14 days), the “Effect on lung metastasis (lung architecture, histopathology)” value is “significantly restored close to normal”. In [7] (PDOX mice, 2, 5 and 10 mg/kg IP daily, 14 days, vs control), the “Body weight of mice” value is on record as “improvement in body weight”. Besides, the Tumor volume entry in series [7] (PDOX mice, 2, 5 and 10 mg/kg IP daily, at the end of the study) is given as “significantly reduced”. Besides, the “Effect on apoptosis of Saos-2 cells” value in [9] is given as “dose-dependently increases apoptosis”.
As to `Cc1nc(NC(=O)c2ccc(CN3CCN(c4ccc(Br)cc4)CC3)cc2)nc(Nc2nccc(-c3nccs3)n2)n1` [Compound 8b], the IC50 in series [1] was 730 nM; in series [4] it was 885 nM; in [5], 830 nM; in [6] it was 268 nM; in series [8], 389 nM.
In the case of `Cc1ccc(N2CCN(Cc3ccc(C(=O)Nc4nc(C)nc(Nc5nccc(-c6nccs6)n5)n4)cc3)CC2)cc1` [Compound 8c], the IC50 worked out at 900 nM in [1]; 967 nM in series [4]; 1030 nM in [5]; 530 nM in series [6]; 490 nM in series [8].
For `Cc1nc(NC(=O)c2ccc(CN3CCN(c4ccc([N+](=O)[O-])cc4)CC3)cc2)nc(Nc2nccc(-c3nccs3)n2)n1` [Compound 8d], the IC50 in series [1] stood at 822 nM; in [4], 905 nM; in [5], 950 nM; in [6] it was 340 nM; in series [8], 414 nM.
Consider `Cc1nc(NC(=O)c2ccc(CN3CCN(c4ccc(O)cc4)CC3)cc2)nc(Nc2nccc(-c3nccs3)n2)n1` [Compound 8e], for which the half-maximal inhibitory concentration (IC50) in [1] stood at 887 nM; in series [4] it was 987 nM; in series [5] it was 1140 nM; in series [6], 478 nM; in series [8], 456 nM.
`COc1ccc(N2CCN(Cc3ccc(C(=O)Nc4nc(C)nc(Nc5nccc(-c6nccs6)n5)n4)cc3)CC2)cc1` [Compound 8f]: the IC50 in [1] is 1200 nM; in series [4] it was 1250 nM; in [5], 1230 nM; in series [6], 905 nM; in series [8] it was 834 nM.
